Experimental data reported in the supplement of paper PMC5752671.

Assays:
Assay in all cases: area under dose-response curve (cell viability) (AUC (arbitrary, % viability x log concentration)); higher = less sensitive (more viable)
Settings in all cases: 4 days
KASUMI1 = test system: KASUMI1
Method: (§1)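 14 AML cell lines were plated on extracellular-matrix-coated 384-well plates and exposed to each drug at 8 concentrations (4-5 logs within 1e-12 to 1e-4 M, tailored per drug) in duplicate. Viability was read by CellTiter-Glo after 4 days. The dose-response (averaged over duplicates) was fitted to a 4-parameter sigmoid, and the area under the curve was taken as the sensitivity measure.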

THP-1 = test system: THP-1
Method: as §1

OCI-AML2 = test system: OCI-AML2
Method: as §1

U937 = test system: U937
Method: as §1

MOLM/13 = test system: MOLM/13
Method: as §1

HL60 = test system: HL60
Method: as §1

SKM1 = test system: SKM1
Method: as §1

EOL-1 = test system: EOL-1
Method: as §1

MOLM/16 = test system: MOLM/16
Method: as §1

OCI-AML3 = test system: OCI-AML3
Method: as §1

SMILES | area under dose-response curve (KASUMI1) | area under dose-response curve (THP-1) | area under dose-response curve (OCI-AML2) | area under dose-response curve (U937) | area under dose-response curve (MOLM/13) | area under dose-response curve (HL60) | area under dose-response curve (SKM1) | area under dose-response curve (EOL-1) | area under dose-response curve (MOLM/16) | area under dose-response curve (OCI-AML3)
Cc1cc(C(=O)NOCCO)c(Nc2ccc(I)cc2F)n(C)c1=O [AZD8330] | 375 | 424 | 33.6 | 465 | 416 | 405 | 44.2 | 169 | 341 | 87.3
Cn1cnc2c(F)c(Nc3ccc(Br)cc3Cl)c(C(=O)NOCCO)cc21 [AZD-6244] | 528 | 627 | 338 | 657 | 662 | 458 | 358 | 509 | 501 | 384
COc1ccc(-c2ccc3c(N4CCOC[C@@H]4C)nc(N4CCOC[C@@H]4C)nc3n2)cc1CO [AZD-8055] | 440 | 379 | 394 | 310 | 396 | 537 | 413 | 296 | 299 | 405
CNC(=O)c1ccccc1Sc1ccc2c(/C=C/c3ccccn3)n[nH]c2c1 [Axitinib] | 538 | 697 | 577 | 635 | 610 | 713 | 679 | 325 | 577 | 641
Nc1ncn([C@@H]2O[C@H](CO)[C@@H](O)[C@H]2O)c(=O)n1 [Azacitidine] | 603 | 667 | 532 | 623 | 505 | 647 | 564 | 481 | 506 | 619
Cc1ccc(S(=O)(=O)/C=C/C#N)cc1 [BAY 11-7082] | 466 | 492 | 516 | 499 | 528 | 474 | 467 | 527 | 520 | 461
CC(C)(C)c1ccc(S(=O)(=O)/C=C/C#N)cc1 [BAY 11-7085] | 445 | 537 | 536 | 500 | 533 | 443 | 465 | 480 | 476 | 444
Cn1c(=O)n(-c2ccc(C(C)(C)C#N)cc2)c2c3cc(-c4cnc5ccccc5c4)ccc3ncc21 [BEZ-235] | 447 | 505 | 403 | 374 | 435 | 512 | 451 | 373 | 362 | 459
COc1ccc(-c2ccc3ncc4c(c3c2)n(-c2ccc(N3CCNCC3)c(C(F)(F)F)c2)c(=O)n4C)cn1 [BGT-226] | 366 | 415 | 356 | 325 | 403 | 452 | 369 | 344 | 316 | 412
CC[C@@H]1C(=O)N(C)c2cnc(Nc3ccc(C(=O)NC4CCN(C)CC4)cc3OC)nc2N1C1CCCC1 [BI-2536] | 118 | 131 | 5.96 | 5.36 | 7.65 | 79.3 | 110 | 10.5 | 90 | 6.18
COC(=O)c1ccc2c(c1)NC(=O)/C2=C(\Nc1ccc(N(C)C(=O)CN2CCN(C)CC2)cc1)c1ccccc1 [BIBF1120] | 571 | 758 | 660 | 698 | 505 | 758 | 677 | 325 | 653 | 685
CN(C)C/C=C/C(=O)Nc1cc2c(Nc3ccc(F)c(Cl)c3)ncnc2cc1O[C@H]1CCOC1 [BIBW 2992] | 641 | 664 | 600 | 625 | 625 | 663 | 561 | 477 | 464 | 594
O=C(/C=C/c1cccc(S(=O)(=O)Nc2ccccc2)c1)NO [Belinostat] | 524 | 452 | 370 | 388 | 465 | 550 | 469 | 324 | 329 | 446
C=C(c1ccc(C(=O)O)cc1)c1cc2c(cc1C)C(C)(C)CCC2(C)C [Bexarotene] | 672 | 584 | 520 | 608 | 529 | 661 | 469 | 341 | 671 | 550
O=c1c(N=Nc2ccc(S(=O)(=O)O)cc2)c(-c2ccc([N+](=O)[O-])cc2)[nH]n1-c1ccccc1 [PHPS1] | 683 | 646 | 614 | 630 | 627 | 674 | 646 | 690 | 618 | 622
Oc1cccc(-c2nc(N3CCOCC3)c3oc4ncccc4c3n2)c1 [PI-103] | 409 | 478 | 477 | 412 | 496 | 453 | 463 | 422 | 285 | 442
Cc1ccc([N+](=O)[O-])cc1S(=O)(=O)N(C)/N=C/c1cnc2ccc(Br)cn12 [PIK-75] | 373 | 380 | 353 | 371 | 339 | 363 | 402 | 335 | 328 | 398
COc1ccc2c3n(c(=NC(=O)c4cccnc4)nc2c1OC)CCN3 [PIK-90] | 500 | 563 | 575 | 586 | 624 | 512 | 540 | 559 | 515 | 532
CO[C@@H]1[C@H](N(C)C(=O)c2ccccc2)C[C@H]2O[C@]1(C)n1c3ccccc3c3c4c(c5c6ccccc6n2c5c31)C(=O)NC4 [PKC412] | 499 | 633 | 441 | 454 | 310 | 643 | 555 | 245 | 425 | 560
CN(C)C1CCN(C(=O)c2ccc(NC(=O)Nc3ccc(-c4nc(N5CCOCC5)nc(N5CCOCC5)n4)cc3)cc2)CC1 [PKI-587] | 463 | 465 | 374 | 255 | 346 | 437 | 372 | 307 | 429 | 248
